≈ marks a conversion by molar mass, not a printed value. Where two headings read alike, the source gives them in different places.
Key:
HU36 [1] = assay: Disc diffusion antibiogram; assay type: cell-based, Bacillus
Natto = assay: Disc diffusion antibiogram; settings: 6 mm discs, amount per disc in brackets after each antibiotic, 18 h at 37° C., three experiments
PY79 [2] = assay: Disc diffusion antibiogram; settings: 6 mm discs, amount per disc in brackets after each antibiotic, 18 h at 37° C., three experiments
[3] = strains with MICs equal or higher are considered resistant, cited from earlier work
HU36 [4] = assay: MIC determination; assay type: cell-based; settings: Bacillus
PY79 [5] = assay: MIC determination; assay type: cell-based; settings: Bacillus subtilis
[6] = Gastric stability of carotenoids in simulated gastric fluid (SGF); assay type: in vitro ADME; settings: SGF (1 mg/ml pepsin, 0.9% NaCl, pH 2), 37° C., by 20 minutes, versus 0 minutes

Molecule	Zone of inhibition (mm) (Natto)	Zone of inhibition (mm) (PY79 [2])	MIC (HU36 [4]) [µg/mL]	MIC (PY79 [5]) [µg/mL]	other results
CCn1cc(C(=O)O)c(=O)c2ccc(C)nc21 [Naladixic acid]	23 ± 1.7	20.7 ± 1.2			Zone of inhibition (mm) (HU36 [1]; HU36, 6 mm discs, amount per disc in brackets after each antibiotic, 18 h at 37° C., three experiments): 22.8 ± 1.4 mm
Gentamycin					Breakpoints EFSA ([3]; (EFSA, 2005)): 4 mg/L; Breakpoints SCAN ([3]; (SCAN, 2002)): 8 mg/L
O=C(O)c1cn(C2CC2)c2cc(N3CCNCC3)c(F)cc2c1=O [Ciporfloxacin]	33.3 ± 1.5	32.8 ± 1			Zone of inhibition (mm) (HU36 [1]): 29.7 ± 0.6 mm
CC(C)(O/N=C(\C(=O)N[C@@H]1C(=O)N2C(C(=O)[O-])=C(C[n+]3ccccc3)CS[C@H]12)c1csc(N)n1)C(=O)O [Ceftazidime]			0.05 (≈ 0.0915 µM)	0.025 (≈ 0.0457 µM)	
CCC[C@@H]1C[C@@H](C(=O)N[C@@H]([C@H]2O[C@H](SC)[C@H](O)[C@@H](O)[C@H]2O)[C@H](C)Cl)N(C)C1 [Clindamycin]			8 (≈ 18.8 µM)	0.05 (≈ 0.118 µM)	
CC1=C(/C=C/C(C)=C/C=C/C(C)=C/C=C/C=C(C)/C=C/C=C(C)/C=C/C2=C(C)CCCC2(C)C)C(C)(C)CCC1 [carotenoid standard, beta-carotene]					carotenoid remaining [6]: less than 1%
